17 molecules from patent publication US7232912B2, “Indazole compounds, pharmaceutical compositions, and methods for mediating or inhibiting cell proliferation” (Agouron Pharmaceuticals, Inc., priority 2000, dated 2007) can be followed below.

The target of one assay is CDK4/cyclin D3 (Homo sapiens, UniProt P11802). The assay can be described thus: Inhibition of CDK4/Cyclin D Retinoblastoma Kinase Activity. Format: biochemical. The note with it: apparent Ki. The protocol: (§1) Cyclin-dependent kinase activity was measured by quantifying the enzyme-catalyzed, time-dependent incorporation of radioactive phosphate from [^32P]ATP or [^33P]ATP into a protein substrate. Unless noted otherwise, assays were performed in 96-well plates in a total volume of 50 μL, in the presence of 10 mM HEPES (N-[2-hydroxyethyl]piperazine-N′-[2-ethanesulfonic acid]) (pH 7.4), 10 mM MgCl2, 25 μM adenosine triphosphate (ATP), 1 mg/mL ovalbumin, 5 μg/mL leupeptin, 1 mM dithiothreitol, 10 mM beta-glycerophosphate, 0.1 mM sodium vanadate, 1 mM sodium fluoride, 2.5 mM ethylene glycol-bis(β-aminoethyl ethKer)-N,N,N′N′-tetraacetic acid (EGTA), 2% (v/v) dimethylsulfoxide, and 0.03–0.4 μCi [^32/33P]ATP per reaction. Reactions were initiated with appropriate enzyme, incubated at 30° C., and terminated after 20 minutes by the addition of ethylenediaminetetraacetic acid (EDTA) to 250 mM. The phosphorylated substrate was then captured on a nitrocellulose or phosphocellulose membrane using a 96-well filtration manifold, and unincorporated radioactivity was removed by repeated washing with 0.85% phosphoric acid. Radioactivity was quantified by exposing the dried membranes to a phosphorimager.
(§2) Apparent Ki values were measured by assaying enzyme activity in the presence of different inhibitor compound concentrations and subtracting the background radioactivity measured in the absence of enzyme. Inhibition data were fit to an equation for competitive inhibition using Kaleidagraph (Synergy Software), or were fit to an equation for competitive tight-binding inhibition using the software KineTic (BioKin, Ltd.).
Inhibition of CDK4/Cyclin D Retinoblastoma Kinase Activity
A complex of human CDK4 and cyclin D3, or a complex of human CDK4 and genetically truncated (1–264) cyclin D3, was purified using traditional biochemical chromatographic techniques from insect cells that had been co-infected with the corresponding baculovirus expression vectors (see e.g., Meijer and Kim, “Chemical Inhibitors of Cyclin-Dependent Kinases,” Methods in Enzymol,. vol. 283 (1997), pp. 113–128.). The enzyme complex (5 or 50 nM) was assayed with 0.3–0.5 μg of purified recombinant retinoblastoma protein fragment (Rb) as a substrate. The engineered Rb fragment (residues 386–928 of the native retinoblastoma protein; 62.3 kDa) contains the majority of the phosphorylation sites found in the native 106-kDa protein, as well as a tag of six histidine residues for ease of purification. Phosphorylated Rb substrate was captured by microfiltration on a nitrocellulose membrane and quantified using a phosphorimager as described above. For measurement of tight-binding inhibitors, the enzyme complex concentration was lowered to 5 nM, and the assay duration was extended to 60 minutes, during which the time-dependence of product formation was linear.

For the next assay, the target named is T1, CDK2/cyclin A (Homo sapiens, UniProt P24941).
T1 construct: made in house; host or cells: CDK2: insect cells (baculovirus); cyclin A: E. coli
The assay can be described thus: Inhibition of CDK2/Cyclin A Retinoblastoma Kinase Activity. The note with it: apparent Ki. Format: biochemical. The method, then: as §1, §2
Inhibition of CDK2/Cyclin A Retinoblastoma Kinase Activity
CDK2 was purified using published methodology (Rosenblatt et al., “Purification and Crystallization of Human Cyclin-dependent Kinase 2,” J. Mol. Biol., vol. 230, 1993, pp. 1317–1319) from insect cells that had been infected with a baculovirus expression vector. […] A complex of CDK2 and proteolyzed cyclin A was prepared and purified by gel filtration. The substrate for this assay was the same Rb substrate fragment used for the CDK4 assays, and the methodology of the CDK2/cyclin A and the CDK4/cyclin D3 assays was essentially the same, except that CDK2 was present at 150 nM or 5 nM. Ki values were measured as described above.

The test system of a further assay is HCT 116 cell line. The assay can be described thus: Inhibition of Cell Growth (MTT tetrazolium salt assay). Format: cell-based. The note with it: Homo sapiens. The protocol:
Inhibition of Cell Growth: Assessment of Cytotoxicity
Inhibition of cell growth was measured using the tetrazolium salt assay, which is based on the ability of viable cells to reduce 3-(4,5-dimethylthiazol-2-yl)-2,5-[2H]-diphenyltetrazolium bromide (MTT) to formazan (Mossman, Journal of Immunological Methods, vol. 65 (1983), pp. 55–58). The water-insoluble purple formazan product was then detected spectrophotometrically. The HCT 116 cell line was grown in 96-well plates. Cells were plated in the appropriate medium at a volume of 135 μl/well in McCoy's 5A Medium. Plates were incubated for four hours before addition of inhibitor compounds. Different concentrations of inhibitor compounds were added in 0.5% (v/v) dimethylsulfoxide (15 μL/well), and cells were incubated at 37° C. (5% CO2) for four to six days (depending on cell type). At the end of the incubation, MTT was added to a final concentration of 0.2 mg/mL, and cells were incubated for 4 hours more at 37° C. After centrifugation of the plates and removal of medium, the absorbance of the formazan (solubilized in dimethylsulfoxide) was measured at 540 nm. The concentration of inhibitor compound causing 50% inhibition of growth was determined from the linear portion of a semi-log plot of inhibitor concentration versus percentage inhibition. All results were compared to control cells treated only with 0.5% (v/v) dimethylsulfoxide.

[1] abbreviates: HCT 116, MTT, 50% inhibition of growth, read-out: HCT 116 IC50.
The mark [2] stands for this setting: HCT 116, MTT, IC90, read-out: HCT 116 IC90.
The mark [3] stands for this setting: HCT-116, read-out: HCT 116 IC50 (uM).
Setting [4] is: HCT-116, read-out: HCT 116 IC90 (uM).

Read-outs that look alike come from different tables or passages of the source.

Sequence of CDK4/cyclin D3 (P11802 2-303 limits assumed): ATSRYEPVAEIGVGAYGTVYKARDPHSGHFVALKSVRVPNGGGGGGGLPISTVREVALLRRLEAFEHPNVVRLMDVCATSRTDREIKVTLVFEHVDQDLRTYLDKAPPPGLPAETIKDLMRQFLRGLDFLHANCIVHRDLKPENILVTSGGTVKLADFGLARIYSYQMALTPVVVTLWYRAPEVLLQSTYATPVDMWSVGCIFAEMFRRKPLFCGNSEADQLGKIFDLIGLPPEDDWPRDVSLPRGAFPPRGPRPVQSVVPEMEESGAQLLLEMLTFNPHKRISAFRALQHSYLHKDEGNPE
Sequence of CDK4/cyclin D3 (P30281 1-264 limits assumed, further chain): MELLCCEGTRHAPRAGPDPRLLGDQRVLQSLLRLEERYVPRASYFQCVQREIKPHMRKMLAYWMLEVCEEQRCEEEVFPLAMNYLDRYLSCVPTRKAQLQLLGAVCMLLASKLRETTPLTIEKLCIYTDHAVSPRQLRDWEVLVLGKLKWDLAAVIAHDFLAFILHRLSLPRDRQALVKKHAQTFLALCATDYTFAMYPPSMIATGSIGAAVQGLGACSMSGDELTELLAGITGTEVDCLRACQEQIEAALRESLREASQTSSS

Turning to `CC(=O)N1CCCc2c(-c3ccc4[nH]nc(-c5nc6ccccc6[nH]5)c4c3)cncc21` [Example 63, 1-{5-[3-(1H-Benzoimidazol-2yl)-1H-indazol-5-yl]-3,4-dihydro-2H-[1,7]naphthyridin-1-yl}-ethanone], the Ki on CDK4/cyclin D3 came to 220 nM; on CDK2/cyclin A it was 1.2 nM. The IC50 in the assay with HCT 116 cell line (setting [1]) was determined as 0.43 µM. Also, in the assay with HCT 116 cell line (setting [2]), the IC90 worked out at 1.3 µM.

Consider `Cc1c(C(N)=O)cncc1-c1ccc2[nH]nc(-c3nc4ccccc4[nH]3)c2c1` [Example 64, 5-[3-(1H-Benzoimidazol-2-yl)-1H-indazol-5-yl]-4-methyl-nicotinamide], for which the Ki amounted to 190 nM on CDK4/cyclin D3 and 14 nM at CDK2/cyclin A. In the assay with HCT 116 cell line (setting [1]), the IC50 was determined as 1.3 µM. Besides, the IC90 in the assay on HCT 116 cell line (setting [2]) stood at 5 µM.

For `c1ccc2c(-c3ccc4[nH]nc(-c5nc6c([nH]5)CCCC6)c4c3)cncc2c1` [Example 66, 4-[3-(4,5,6,7-Tetrahydro-1H-benzoimidazol-2-yl)-1H-indazol-5-yl]-isoquinoline], the Ki on CDK4/cyclin D3 stood at 55 nM; at CDK2/cyclin A, 1 nM. In the assay on HCT 116 cell line (setting [1]), the IC50 came out at 0.49 µM. Further, the IC90 with HCT 116 cell line (setting [2]) stood at 1.6 µM.

For `Cc1nc(-c2n[nH]c3ccc(-c4cncc5ccccc45)cc23)[nH]c1-c1ccccc1` [Example 67, 4-[3-(4-Methyl-5-phenyl-1H-imidazol-2-yl)-1H-indazol-5-yl]-isoquinoline], the Ki at CDK4/cyclin D3 came out at 220 nM; at CDK2/cyclin A, 16 nM. In the assay with HCT 116 cell line (setting [3]), the IC50 worked out at 2 µM. Also, the concentration for an effect of 90% (IC90) in the assay with HCT 116 cell line (setting [4]) is 4.7 µM.

Take `Cc1cncc(-c2ccc3[nH]nc(-c4nc5ccccc5[nH]4)c3c2)c1C` [Example 75]: the Ki at CDK4/cyclin D3 turned out to be 9.8 nM; at CDK2/cyclin A, 1.4 nM. Moreover, in the assay on HCT 116 cell line (setting [1]), the IC50 is 0.4 µM. The concentration for an effect of 90% (IC90) in the assay on HCT 116 cell line (setting [2]) turned out to be 1.3 µM.

As to `Cc1c(-c2ccc3[nH]nc(-c4nc5ccccc5[nH]4)c3c2)cnc2ccccc12` [Example 76, 3-[3-(1H-Benzoimidazol-2-yl)-1H-indazol-5-yl]-4-methyl-quinoline], the Ki at CDK4/cyclin D3 was 150 nM; at CDK2/cyclin A, 27 nM. The IC50 in the assay on HCT 116 cell line (setting [1]) is 0.5 µM. For the same molecule, the concentration for an effect of 90% (IC90) with HCT 116 cell line (setting [2]) is 0.5 µM.

With `Cc1c(O)cncc1-c1ccc2[nH]nc(-c3nc4ccccc4[nH]3)c2c1` [Example 77, 5-[3-(1H-Benzoimidazol-2-yl)-1H-indazol-5-yl]-4-methyl-pyridin-3-ol], the Ki stood at 5.8 nM at CDK4/cyclin D3 and 0.38 nM on CDK2/cyclin A. For the same molecule, the IC50 in the assay on HCT 116 cell line (setting [1]) turned out to be 0.31 µM. The concentration for an effect of 90% (IC90) in the assay on HCT 116 cell line (setting [2]) came to 0.5 µM.

For the molecule `Cc1c(CNC(C)C)cncc1-c1ccc2[nH]nc(-c3nc4ccccc4[nH]3)c2c1` [Example 78, {5-[3-(1H-Benzoimidazol-2-yl)-1H-indazol-5-yl]-4-methyl-pyridin-3-ylmethyl}-isopropyl-amine], the Ki on CDK4/cyclin D3 stood at 5.5 nM; at CDK2/cyclin A, 0.7 nM. Also, the IC50 in the assay with HCT 116 cell line (setting [3]) was 0.085 µM. Besides, the IC90 in the assay on HCT 116 cell line (setting [4]) is 0.22 µM.

Regarding `C(=N\n1cccc1)/c1n[nH]c2ccc(-c3cncc4ccccc34)cc12` [Example 79, (5-Isoquinolin-4-yl-1H-indazol-3-ylmethylene)-pyrrol-1-yl-amine], the figures for the Ki on CDK4/cyclin D3 and on CDK2/cyclin A were 2.2 nM and 0.42 nM, respectively. The IC50 in the assay with HCT 116 cell line (setting [1]) was 0.5 µM. The concentration for an effect of 90% (IC90) in the assay on HCT 116 cell line (setting [2]) was determined as 0.5 µM.

For the molecule `CCNCc1cncc(-c2ccc3[nH]nc(-c4nc5c(SC)cccc5[nH]4)c3c2)c1C` [Example 81, Ethyl-4-{methyl-5-[3-(4-methylsulfanyl-1H-benzoimidazol-2-yl)-1H-indazol-5-yl]-pyridin-3-ylmethyl}-amine], the Ki at CDK4/cyclin D3 was determined as 0.8 nM; on CDK2/cyclin A, 4.9 nM. The IC90 with HCT 116 cell line (setting [2]) is 0.21 µM.

`Cc1c(CNCC(C)C)cncc1-c1ccc2[nH]nc(-c3nc4ccccc4[nH]3)c2c1` [Example 87, {5-[3-(1H-Benzoimidazol-2-yl)-1H-indazol-5-yl]-4-methyl-pyridin-3-ylmethyl}-isobutyl-amine]: the Ki at CDK4/cyclin D3 is 4.2 nM; at CDK2/cyclin A, 1.9 nM. The half-maximal inhibitory concentration (IC50) in the assay with HCT 116 cell line (setting [1]) was 0.16 µM. Moreover, the IC90 in the assay on HCT 116 cell line (setting [2]) turned out to be 0.42 µM.

Consider `Cc1c(CNCc2ccccc2)cncc1-c1ccc2[nH]nc(-c3nc4ccccc4[nH]3)c2c1` [Example 88, {5-[3-(1H-Benzoimidazol-2-yl)-1H-indazol-5-yl]-4-methyl-pyridin-3-ylmethyl}-benzyl-amine], for which the Ki at CDK4/cyclin D3 stood at 3.5 nM; at CDK2/cyclin A it was 1.4 nM. For the same molecule, the IC50 with HCT 116 cell line (setting [1]) is more than 0.5 µM. In the assay on HCT 116 cell line (setting [2]), the IC90 was more than 0.5 µM.

On to `Cc1c(CNCCO)cncc1-c1ccc2[nH]nc(-c3nc4ccccc4[nH]3)c2c1` [Example 89, 2-({5-[3-(1H-Benzoimidazol-2-yl)-1H-indazol-5-yl]-4-methyl-pyridin-3-ylmethyl}-amino)-ethanol], for which the Ki on CDK4/cyclin D3 was 1 nM; at CDK2/cyclin A, 0.94 nM. Moreover, the IC50 in the assay on HCT 116 cell line (setting [1]) is 0.15 µM. In addition, the concentration for an effect of 90% (IC90) with HCT 116 cell line (setting [2]) stood at 0.25 µM.

Regarding `CNC(C)c1cccc2[nH]c(-c3n[nH]c4ccc(-c5cncc6ccccc56)cc34)nc12` (stereo not shown) [Example 90, {1-[2-(5-Isoquinolin-4-yl-1H-indazol-3-yl)-1H-benzoimidazol-4-yl]-ethyl}-methyl-amine], the Ki stood at 0.09 nM on CDK4/cyclin D3 and 0.3 nM at CDK2/cyclin A. For the same molecule, in the assay on HCT 116 cell line (setting [1]), the IC50 is 0.03 µM. Also, the 90% effect concentration (IC90) in the assay on HCT 116 cell line (setting [2]) is 0.12 µM.

For the molecule `Cc1c(CN2CCOCC2)cncc1-c1ccc2[nH]nc(-c3nc4ccccc4[nH]3)c2c1` [Example 91, 3-(1H-Benzoimidazol-2-yl)-5-(4-methyl-5-morpholin-4-ylmethyl-pyridin-3-yl)-1H-indazole], the Ki amounted to 7.5 nM at CDK4/cyclin D3 and 2.8 nM at CDK2/cyclin A. Further, in the assay with HCT 116 cell line (setting [1]), the IC50 is 0.34 µM. Also, the concentration for an effect of 90% (IC90) in the assay on HCT 116 cell line (setting [2]) is more than 0.5 µM.

Turning to `Cc1c(CNC2CCCC2)cncc1-c1ccc2[nH]nc(-c3nc4ccccc4[nH]3)c2c1` [Example 92, {5-[3-(1H-Benzoimidazol-2-yl)-1H-indazol-5-yl]-4-methyl-pyridin-3-ylmethyl}-cyclopentyl-amine], the Ki was 7.8 nM on CDK4/cyclin D3 and 2.7 nM at CDK2/cyclin A. Besides, the concentration for half-maximal inhibition (IC50) in the assay with HCT 116 cell line (setting [1]) was 0.18 µM. Besides, in the assay with HCT 116 cell line (setting [2]), the IC90 worked out at 0.5 µM.

For `Cc1c(CNc2cccnc2)cncc1-c1ccc2[nH]nc(-c3nc4ccccc4[nH]3)c2c1` [Example 93, {5-[3-(1H-Benzoimidazol-2-yl)-1H-indazol-5-yl]-4-methyl-pyridin-3-ylmethyl}-pyridin-3-yl-amine], the Ki came to 1.9 nM at CDK4/cyclin D3 and 0.61 nM on CDK2/cyclin A. The half-maximal inhibitory concentration (IC50) in the assay with HCT 116 cell line (setting [1]) was found to be 0.32 µM. The IC90 in the assay on HCT 116 cell line (setting [2]) is more than 0.5 µM.

What is called IC50 is the concentration that gives 50% inhibition. The IC90 is the point of the concentration-response curve where the effect stands at 90%.
